The numbers were not newly measured in patent US20090221688A1, “PHARMACEUTICAL COMPOSITIONS CONTAINING DOCETAXEL AND A DEGRADATION INHIBITOR AND A PROCESS FOR OBTAINING THE SAME” (Quiral Quimica DO Brasil S.A., priority 2006, published 2009), which cites them from elsewhere.

In this data set the target is T1, recombinant human cytochrome P450 1B1 (hCYP1B1) (Homo sapiens, UniProt Q16678).
T1 sequence (Q16678 1-543): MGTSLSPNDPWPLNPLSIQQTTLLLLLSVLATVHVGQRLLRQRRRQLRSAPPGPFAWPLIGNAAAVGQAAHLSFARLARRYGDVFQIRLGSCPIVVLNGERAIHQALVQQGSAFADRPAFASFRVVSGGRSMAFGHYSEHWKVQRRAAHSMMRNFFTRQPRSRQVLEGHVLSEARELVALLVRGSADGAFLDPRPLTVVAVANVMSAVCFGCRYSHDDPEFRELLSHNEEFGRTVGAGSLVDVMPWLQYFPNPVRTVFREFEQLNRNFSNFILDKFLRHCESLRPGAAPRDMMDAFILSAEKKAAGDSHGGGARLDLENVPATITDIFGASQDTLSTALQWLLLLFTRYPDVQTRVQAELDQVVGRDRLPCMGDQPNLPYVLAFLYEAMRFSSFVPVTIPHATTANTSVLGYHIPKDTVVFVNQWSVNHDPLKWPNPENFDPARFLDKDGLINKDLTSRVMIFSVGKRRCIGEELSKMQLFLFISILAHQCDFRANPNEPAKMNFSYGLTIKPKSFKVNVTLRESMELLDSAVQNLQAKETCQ

For `CC(=O)O[C@@]12COC1C[C@@H](O)[C@@]1(C)C(=O)[C@H](O)C3=C(C)[C@@H](OC(=O)[C@H](O)[C@@H](NC(=O)OC(C)(C)C)c4ccccc4)C[C@@](O)([C@@H](OC(=O)c4ccccc4)[C@@H]12)C3(C)C` (stereo partly drawn) [7-epi-docetaxel (II), 4-acetoxy-2-α-benzoyloxy-5β-20-epoxy-1,7-α-10-β-trihydroxy-9-oxo-tax-11-en-13α-il (2R,3S) 3-tert-butoxycarbonylamino-2-hydroxy-3-phenylpropionate ester], the “Increase of the activity of hCYP1B1” value (concentration of 10 μM) is recorded as “more than 7 fold”.

As to `CC(=O)O[C@@]12COC1C[C@H](O)[C@@]1(C)C(=O)[C@H](O)C3=C(C)[C@@H](OC(=O)[C@H](O)[C@@H](NC(=O)OC(C)(C)C)c4ccccc4)C[C@@](O)([C@@H](OC(=O)c4ccccc4)[C@@H]12)C3(C)C` (stereo partly drawn) [docetaxel, 4-acetoxy-2α-benzoyloxy-5β-20-epoxy-1,7-β-10-β-trihydroxy-9-oxo-tax-11-en-13α-il (2R,3S) 3-tert-butoxycarbonylamino-2-hydroxy-3-phenylpropionate ester], the “Metabolism by hCYP1B1 in vitro” value (EROD activity as a measure) is “not metabolized”.
